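The compound was tested at five concentrations on cells cultured in 96-well plates, with a 48-hour exposure period. GI50 is the concentration that inhibits growth by half.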 Calls of active or inactive are those of the source. Cut-off read from the data, not from the text of the source: active = GI50 up to about 1.1 µM and inactive = higher.
What was measured:
[1] = test system: MCF7; assay: inhibition of tumour cell growth, NCI panel, 48 h
[2] = test system: BT-549; assay: inhibition of tumour cell growth, NCI panel, 48 h

SMILES | GI50 [1] | GI50 [2]
C[As+](C)(c1ccc(Br)c([N+](=O)[O-])c1)c1ccc(Br)c([N+](=O)[O-])c1 | > 100 µM (inactive) | > 100 µM (inactive)
COc1cc([C@@H]2c3cc4c(cc3[C@@H](NCCNCCO)[C@H]3COC(=O)[C@H]23)OCO4)cc(OC)c1O | – | 2.14 µM (inactive)
CCCCCCCCCCCCCCC(O)C[N+](C)(CCO)CCO (stereo not given) | 12.6 µM (inactive) | 3.05 µM (inactive)
O=C(O)c1cc2ccccc2c(/N=N/c2ccccc2)c1O | – | 20.8 µM (inactive)
CCOC(=O)CCC(C(=O)OCC)n1nnc2ccc(Nc3c(C)[n+]([O-])c4cc(Cl)ccc4[n+]3[O-])cc21 (stereo not given) | 17.9 µM (inactive) | 26.5 µM (inactive)
c1ccc(COc2ncccc2C2SCCCS2)cc1 | 84.3 µM (inactive) | > 100 µM (inactive)
Cc1ccc(O)c(C2=CC(c3cccc(Br)c3)SC(=N)N2)c1 (stereo not given) | 23.3 µM (inactive) | 29.8 µM (inactive)
CC(=O)Nc1ccc2c(c1)/C(=C\c1ccc([N+](C)(C)C)cc1)c1ccccc1-2 | 32 µM (inactive) | 34.3 µM (inactive)
Cc1cccc(Nc2nc3ccccc3nc2NS(=O)(=O)c2ccccc2)c1 | 26.5 µM (inactive) | 40.1 µM (inactive)
COC(=O)/C=C(/C=C1/C(C#N)=C(N)N(c2ccc(Cl)cc2)C1(C)/C(=C/C(=O)OC)C(=O)OC)C(=O)OC (stereo not given) | 78.3 µM (inactive) | –
COc1cc2c(cc1OC)OC(c1c(OC)ccc(OC)c1O)CC2 (stereo not given) | 78.2 µM (inactive) | > 100 µM (inactive)
CCOC(=O)c1c(N2CCOCC2)[nH]c(=O)c(C(c2c(O)c(C(=O)OCC)c(N3CCOCC3)[nH]c2=O)C(C)C)c1O | > 100 µM (inactive) | > 100 µM (inactive)
Cc1ccccc1NC(=O)O/N=C(\Cl)C(C)C | 7.98 µM (inactive) | 5.32 µM (inactive)
CN(N=O)C(=O)NNC(=O)N(C)N=O | 35.6 µM (inactive) | 91.8 µM (inactive)
CCOP(=O)(Nc1ccccc1P(=O)(OCC)OCC)OCC | > 100 µM (inactive) | > 100 µM (inactive)
COC(=O)Nc1nc2cc(NS(=O)(=O)c3ccc(F)cc3)ccc2[nH]1 | 4.57 µM (inactive) | > 100 µM (inactive)

SMILES | GI50 [1] | GI50 [2]
NCCCN(CCCN)CCc1cn(C(=O)c2ccccc2)cn1 | 2.62 µM (inactive) | 12.5 µM (inactive)
CCOc1cc(NC(C)=O)ccc1C(=O)NN1C(=O)C(Cl)C1c1ccco1 (stereo not given) | 13.4 µM (inactive) | 13.5 µM (inactive)
CN1CCN(c2ccc3nc(-c4cc(O)c5c(nc(CO)n5C)c4O)[nH]c3n2)CC1 | – | > 100 µM (inactive)
Cc1cc(C)c2c(-c3ccccc3)cc(=O)[nH]c2c1 | > 100 µM (inactive) | –
CN1/C(=C/C=C/C=C/C=C2C(=O)c3ccccc3C2=O)C(C)(C)c2ccccc21 | 31.3 µM (inactive) | 24 µM (inactive)
CCNc1ccc2c(c1)Cc1ccccc1-2 | 23.7 µM (inactive) | 34.5 µM (inactive)
CNc1cc2oc(=O)cc(C)c2cc1C | 96.8 µM (inactive) | 15.4 µM (inactive)
CC(CCCCNC(=O)OC(C)(C)C)NC(=O)NC(C)CCCCNC(=O)OC(C)(C)C (stereo not given) | 95.3 µM (inactive) | > 100 µM (inactive)
COc1cc(OCc2ccc3nc(-c4ccccc4)c(Cl)nc3c2)cc(OC)c1OC | 59.7 µM (inactive) | –
CC(=O)NC1C(OC(C)C(=O)NC(C(=O)NC(CCC(=O)NCCCNC2c3ccccc3Nc3cccc([N+](=O)[O-])c32)C(N)=O)C(C)C)C(O)C(CO)OC1(C)OCc1ccccc1 (stereo not given) | 0.343 µM (active) | 1.63 µM (inactive)
CCSC1=N/C(=C\c2ccco2)C(Nc2ccc(C)cc2)=N1 | > 100 µM (inactive) | –
COc1cc(OC)cc(-n2c(N)c(-c3nc4ccccc4s3)c3ccc([N+](=O)[O-])cc3c2=O)c1 | > 100 µM (inactive) | > 100 µM (inactive)
O=C1c2c(Br)sc(Br)c2[C@@H](NC(=O)C(F)(F)F)C1Br (stereo not given in full) | 5.71 µM (inactive) | 3.03 µM (inactive)
C[n+]1c(-c2ccc(NC(=O)c3ccc(C(=O)Nc4ccc(-c5cn6ccccc6[n+]5C)cc4)cc3)cc2)cn2ccccc21 | > 75 µM (inactive) | > 100 µM (inactive)
COc1ccc(-c2cc(=O)c3c(OC)c(OC)c(OC)cc3o2)cc1 | 37.4 µM (inactive) | 31.7 µM (inactive)
